Test results taken from PMC8298232 (Archives of Toxicology, 2021).
Values joined by “and” are separate entries in the source; they are usually repeats but may differ in a detail not shown here. Identical values can stand only once.

Columns and labels:
[1] = Kinetics of UV 328 and its metabolites in blood after single oral exposure of volunteers; assay type: in vivo, human
Procedure: Furthermore, blood samples were drawn from each volunteer 2, 4, 6, 8, 10, 24, […] 48 h after exposure. In summary, […] blood samples were collected from every volunteer. One volunteer donated two EDTA—Monovettes® (Sarstedt, Nümbrecht, Germany) for every time point. So, for every sampling time one sample was kept as whole blood while the plasma fraction was extracted for the other. In this case, the respective blood vessels were centrifuged at 800 × g for 5 min. The supernatants were transferred to 15 mL conical plastic tubes (Sarstedt, Nümbrecht, Germany). Both blood and plasma samples were stored frozen at − 50 °C until analysis.
Analysis of blood samples was performed according to a previously published method (Denghel and Göen [2021]). In summary, blood proteins and cellular components were precipitated by the addition of ACN. Afterwards, the supernatant was diluted with sodium chloride solution and the investigated analytes were extracted by dispersive liquid–liquid microextraction (DLLME) using a mixture of CH2Cl2 and ACN. […] Variation coefficients ranged from 2 to 9% for precision in series and from 3 to 11% for interday precision. Additionally, relative recovery rates between 80 and 100% were found.
The ln-transformed mean excretion curve was plotted against the time (in h) to obtain the slope (kel, elimination rate constant) and the excretion half-life (t1/2) as follows: t1/2=ln2/|kel|.

[2] = Renal elimination kinetics of UV 328 and its metabolites in urine after single oral exposure; conditions: for REmax (maximum renal excretion rate): human urine with hydrolysis; for share of cumulative amounts of all quantified analytes in urine: urine with hydrolysis, cumulative within 72 h
Procedure: Three volunteers (two men and one person, mean age 37.3 ± 15.5, mean body weight 81.3 ± 6.1 kg) were selected for the in vivo study. Prior to oral exposure, every volunteer collected one urine sample. Additionally, one blood sample was taken using EDTA-Monovettes® (Sarstedt, Nümbrecht, Germany) before exposure. […] Thereby, a safety factor of 100 was considered for single application and interspecies differences, resulting in a dose of 0.3 mg/kg bw. […] Participants collected the total urine volume of each void separately throughout 72 h and recorded the respective sampling times. […] The urine samples were volumetrically measured for each sampling point, aliquoted in urine Monovettes® (Sarstedt, Nümbrecht, Germany) and stored frozen at − 50 °C until analysis.
The urine samples were processed according to a previously published procedure (Denghel and Göen [2020]). In brief, urine samples were enzymatically hydrolyzed using β-glucuronidase/arylsulfatase from Helix pomatia. […] The extracts were derivatized with BSA/TMCS and TSIM and finally measured via GC–MS/MS with advanced electron ionization (AEI).
Thereby, RE,i is the renal excretion rate for the urine sample i (in µg/h), ci is the analyte concentration in the urine sample (in µg/L), Vi is the volume of the urine sample (in L) and ti and ti-1 are the elapsed time values (in h) of the sample and the previous sample, respectively.
Afterwards, the time course of the excretion rates RE,i was recorded for the middle of the respective sampling period (ti,m in h) according to the equation: ti,m=ti-1+ti-ti-1/2.
The current excretion rates were plotted as a function of the average time of the respective sampling period for every volunteer and each analyte.
Finally, mean excretion curves were calculated by taking the average of related urinary sampling times and the corresponding renal excretion rates (in µg/h) for all volunteers’ samples (arithmetic mean ± standard deviation). The mean cumulative excreted amount (in µmol) of all volunteers was obtained by addition of each molar excreted amount: ∑i=0nci×Vi/M.
Thereby, ci is the concentration of the metabolite in urine (in µg/L), Vi is the volume of the respective urine sample (in L) and M is the molar mass of the respective metabolite (in µg/µmol).
Afterwards, excretion half-lives (t1/2) (in h) were ascertained as described in Sect. “Evaluation of blood kinetics” by plotting the current excretion rates as function of time.

[3] = Shares of conjugated analytes in urine (analysis with and without β-glucuronidase/arylsulfatase hydrolysis); conditions: urine of one volunteer; for Conjugation ratio: with vs without hydrolysis
Procedure: The analysis of urine samples was performed with and without hydrolysis for one volunteer to determine the shares of analytes conjugated with glucuronic acid or sulfate. Initially, urine samples were thawed, equilibrated to room temperature and homogenized using a vortex mixer. Afterwards, the Monovettes® were centrifuged for 2 min at 1600 g to sediment solid residue in the sample. 1 mL of the sample was transferred into a 15 mL conical tube (Sarstedt, Nümbrecht, Germany). Without hydrolysis, 1 mL of the urine samples was prepared with 200 μL of ammonium acetate buffer (1 mol/L, pH 6) and 10 μL of the internal standard mix solution. […] Finally, the calculated analyte excretion rates (see Sect. “Evaluation of renal elimination”) obtained with hydrolysis were correlated with the ones prepared without hydrolysis for every detected compound. A linear curve fit was applied to the plotted data points. The resulting slope of the regression line described the percentage of free and therefore unconjugated analyte.
Therefore, urine samples of one volunteer were analyzed with and without addition of β-glucuronidase/arylsulfatase from Helix pomatia and incubation according to the standard procedure previously published (Denghel and Göen [2020]) (see Sect. “Analysis of urine samples without hydrolysis”).

[4] = Medical laboratory values (liver, kidney, LDH, CK) of volunteers before, during and one week after oral exposure; assay type: in vivo, human; conditions: third subject, seven days after exposure; not attributed to the exposure by the investigators
Procedure: Because of potential confounding effects on those liver and kidney laboratory parameters and their potential to indicate massive cell destruction, lactate dehydrogenase (LDH) and creatinine kinase (CK) were included in the medical blood work as well. All medical laboratory values were carried out by an accredited medical laboratory. Thus, initial pathological laboratory values for liver or kidney function were defined as further exclusion criteria for study participation. In case of occurrence of relevant pathological medical values for liver or kidney function during the ongoing study which could be attributable to the study exposure, no further subjects were to be included until further clarification, potentially leading to a full cessation of the whole study.

[5] = tested on: beagle dogs; conditions: ref US EPA [2009]; cited from earlier work
[6] = tested on: animal studies; conditions: oral exposure, ref CIBA-GEIGY [1978], Kim et al. [2011a]; cited from earlier work
[7] = tested on: rats; conditions: ref ECHA [2013], Geigy [1970], Til et al. [1968]; cited from earlier work
[8] = tested on: beagle dogs; conditions: ref ECHA [2013], Geigy [1970], Til et al. [1968]; cited from earlier work
[9] = Distribution between blood compartments (plasma to blood ratio); assay type: in vivo, human
Procedure: Furthermore, blood samples were drawn from each volunteer 2, 4, 6, 8, 10, 24, 34 and 48 h after exposure. In summary, eight blood samples were collected from every volunteer. […] So, for every sampling time one sample was kept as whole blood while the plasma fraction was extracted for the other. In this case, the respective blood vessels were centrifuged at 800 × g for 5 min. The supernatants were transferred to 15 mL conical plastic tubes (Sarstedt, Nümbrecht, Germany). Both blood and plasma samples were stored frozen at − 50 °C until analysis.
Therefore, the concentrations of the analytes in whole blood and plasma were determined according to the SOP (Denghel and Göen [2021]) and an established procedure (see supplemental material), respectively. The results for whole blood and plasma were plotted against the time points of the respective sampling and the plasma to blood ratios (p/b) were calculated by a simplified approach for estimating the AUC ratios. Therefore, all plasma concentrations (in µg/L) determined were added and divided through the sum of the respective blood concentrations (in µg/L) according to the equation: p/b=∑i=0ncplasma/∑i=0ncblood.
Analysis of plasma samples
For the analysis of plasma samples, the procedure for blood samples was adjusted as follows: Initially, CPD plasma was equilibrated to room temperature and homogenized by manual shaking. Frozen samples of the study participants were thawed, equilibrated to room temperature, and homogenized using a vortex mixer. Aliquots of 1 mL were prepared with 10 µL of the internal standard mix. Afterwards, the plasma proteins were precipitated by the additions of 3 mL ACN with 0.1 % formic acid. The samples were vortex-blended for 1 min and centrifuged for 15 min at 3000 x g. The supernatants were transferred into 25 mL tubes with conical bottom (Sarstedt, Nümbrecht, Germany) and diluted with 4 mL of 1 % sodium chloride solution. Afterwards, a mixture of 800 µL CH 2Cl2 and 800 µL ACN was added to every tube. Again, the samples were vortex - blended for 1 min and centrifuged for 15 min at 3000 x g. The upper organic phases wer e transferred into 3 mL screw vials (Müller + Krempel AG, Bülach, Switzerland) and dried under nitrogen. The residues were derivatized with 90 µL BSA + 5 % TMCS. After 30 min reaction time at room temperature, 10 µL of 10 % TSIM were added. The samples wer e transferred to micro inserts, sealed with crimping caps, and incubated at 40 °C for 90 min. Finally, measurement was performed using GC -MS/MS

[10] = blood samples 8 h after exposure, without hydrolysis, n = 3
[11] = both sexes, human, in vivo, po, 0.3 mg/kg
[12] = both sexes, human, in vivo, po, 0.3 mg/kg, t1/2 (0–24 h) in blood
[13] = both sexes, human, in vivo, po, 0.3 mg/kg, t1/2 (24–48 h) in blood
[14] = both sexes, human, whole blood, po, 0.3 mg/kg bw, human whole blood, oral 0.3 mg UV 328/kg body weight, mean ± SD, n = 3
[15] = both sexes, human, whole blood, po, 0.3 mg/kg bw, human whole blood, oral 0.3 mg UV 328/kg body weight, n = 3, read-out: tmax in blood
[16] = oral 0.3 mg/kg bw, mean ± SD, n = 3

Compound: CCC(C)(C)c1cc(-n2nc3ccccc3n2)c(O)c(C(C)(C)CC)c1 [UV 328, 2-(2H-Benzotriazol-2-yl)-4,6-di-tert-pentylphenol]
- share of all detected parameters in blood [1, 10]: 95.2 ± 2.0%
- concentration at 24 h [1, 11]: 83.1 ± 54.2 ng/mL
- concentration at 48 h [1, 11]: 29.1 ± 19.4 ng/mL
- half-life [1, 12]: 5.3 h
- half-life [1, 13]: 16.3 h
- Cmax [1, 14]: 736 ± 489 ng/mL
- Tmax [1, 15]: 8 h
- cmax in blood ([1]; human whole blood, oral 0.3 mg UV 328/kg body weight, mean ± SD, n = 3): 736.2 ± 488.7 µg/L
- REmax (maximum renal excretion rate) [2, 16]: 0.013 ± 0.003 µg/h
- share of cumulative amounts of all quantified analytes in urine ([2]; n = 3): 1.0 ± 0.1%
- share excreted via urine without conjugation to glucuronic acid or sulfate [3]: about 84%
- slope of the linear regression line (excretion rates without vs with hydrolysis) ([3]; slope = fraction of free analyte): 0.84
- CK value (creatinine kinase) [4]: 6784 U/L
- No Observed Adverse Effect Level (NOAEL) [5]: 30 mg UV 328/kg bw/day
- acute toxicity [6]: No acute toxicity was observed
- toxicity after repeated oral administration [7]: specific target organ toxicity to liver and kidneys
- toxicity after repeated oral administration [8]: specific target organ toxicity to liver and kidneys

Compound: CCC(C)(C)c1cc(C(C)(C)C(C)=O)cc(-n2nc3ccccc3n2)c1O [UV 328-4/3-CO, 2-(2H-benzotriazol-2-yl)-4-(2-methylbutan-3-on-2-yl)-6-(tert-pentyl)phenol]
- concentration at 24 h [1, 11]: 0.9 ± 0.3 ng/mL
- half-life [1, 12]: 8.3 h
- half-life [1, 13]: 16.4 h
- Tmax ([1]; both sexes, human, in vivo, po, tmax in blood): 8 h
- p/b ratio (plasma to blood ratio) ([9]; human, in vivo): 3.2
- Conjugation ratio [3]: 100%

Compound: CC(=O)C(C)(C)c1cc(-n2nc3ccccc3n2)c(O)c(C(C)(C)C(C)O)c1 (stereo not shown) [UV 328-4/3-CO-6/3-OH, 2-(2H-benzotriazol-2-yl)-4-(2-methylbutan-3-on-2-yl)-6-(3-hydroxy-2-methylbutan-2-yl)phenol]
- share among the quantified metabolites in blood [1, 10]: 13.7 ± 2.5%
- half-life ([1]; both sexes, human, whole blood, oral, 0.3 mg/kg bw, human blood, plateau-shaped elimination curve, phase not specified, read-out: elimination half-life in blood): > 600 h
- Cmax [1, 14]: 4.95 ± 0.72 ng/mL
- Tmax [1, 15]: 24 to 34 h
- half-life ([1]; both sexes, human, whole blood, po, 0.3 mg/kg, first elimination phase, human blood, oral 0.3 mg/kg bw, n = 3, read-out: t1/2 (0–24 h) in blood (converted)): < 600 h
- half-life ([1]; both sexes, human, whole blood, po, 0.3 mg/kg, second elimination phase, human blood, oral 0.3 mg/kg bw, n = 3, read-out: t1/2 (24–48 h) in blood (converted)): < 600 h
- time at which the plateau of blood levels was reached ([1]; human blood, post-dosage): around 10 h
- p/b ratio (plasma to blood ratio) ([9]; sum of plasma concentrations / sum of blood concentrations, one volunteer (n = 1)): 2.0
- Tmax ([2]; both, human, urine, po, 0.3 mg/kg): 11.3 h
- half-life ([2]; both, human, urine, po, 0.3 mg/kg, t½ (renal elimination half-life), human urine, monophasic, oral 0.3 mg/kg bw, n = 3): 53.5 h
- REmax (maximum renal excretion rate) [2, 16]: 0.65 ± 0.02 µg/h
- FUE after 24 h (urinary excretion factor as dose equivalents of UV 328) ([2]; human urine, 0–24 h, mean ± SD, n = 3): 0.038 ± 0.010%
- FUE after 72 h ≙ Fraction of oral dose ([2]; human urine, 0–72 h, mean ± SD, n = 3): 0.081% and 0.081 ± 0.018%
- t½ (renal elimination half-life) ([2]; human urine, monophasic, oral 0.3 mg/kg bw, n = 3, 0.3 mg/kg): 53.3 h
- detection in urine samples after exposure ([2]; post-dosage human urine, collected until 72 h): still detectable in urine after the observed period of 72 h
- share of cumulative amounts of all quantified analytes in urine ([2]; n = 3): 65.8 ± 10.9%
- Conjugation ratio [3]: 100%
